Results as given in patent US20250353852A1, “COMPOUNDS AND COMPOSITIONS THAT INHIBIT PIKFYVE” (Kineta, Inc., priority 2021, published 2025).

What follows are molecules tested against full-length human PIKFYVE (Homo sapiens (Human), UniProt Q9Y2I7, L932S/Q1183K/Q995L/S1033A/S696N/T998S) (assay: PIKfyve biochemical assay (ADP-Glo Kinase assay, Carna Biosciences)). Details: class symbols.
Sequence of full-length human PIKFYVE (Q9Y2I7 whole entry S696N/L932S/Q995L/T998S/S1033A/Q1183K, the tested form may be a part): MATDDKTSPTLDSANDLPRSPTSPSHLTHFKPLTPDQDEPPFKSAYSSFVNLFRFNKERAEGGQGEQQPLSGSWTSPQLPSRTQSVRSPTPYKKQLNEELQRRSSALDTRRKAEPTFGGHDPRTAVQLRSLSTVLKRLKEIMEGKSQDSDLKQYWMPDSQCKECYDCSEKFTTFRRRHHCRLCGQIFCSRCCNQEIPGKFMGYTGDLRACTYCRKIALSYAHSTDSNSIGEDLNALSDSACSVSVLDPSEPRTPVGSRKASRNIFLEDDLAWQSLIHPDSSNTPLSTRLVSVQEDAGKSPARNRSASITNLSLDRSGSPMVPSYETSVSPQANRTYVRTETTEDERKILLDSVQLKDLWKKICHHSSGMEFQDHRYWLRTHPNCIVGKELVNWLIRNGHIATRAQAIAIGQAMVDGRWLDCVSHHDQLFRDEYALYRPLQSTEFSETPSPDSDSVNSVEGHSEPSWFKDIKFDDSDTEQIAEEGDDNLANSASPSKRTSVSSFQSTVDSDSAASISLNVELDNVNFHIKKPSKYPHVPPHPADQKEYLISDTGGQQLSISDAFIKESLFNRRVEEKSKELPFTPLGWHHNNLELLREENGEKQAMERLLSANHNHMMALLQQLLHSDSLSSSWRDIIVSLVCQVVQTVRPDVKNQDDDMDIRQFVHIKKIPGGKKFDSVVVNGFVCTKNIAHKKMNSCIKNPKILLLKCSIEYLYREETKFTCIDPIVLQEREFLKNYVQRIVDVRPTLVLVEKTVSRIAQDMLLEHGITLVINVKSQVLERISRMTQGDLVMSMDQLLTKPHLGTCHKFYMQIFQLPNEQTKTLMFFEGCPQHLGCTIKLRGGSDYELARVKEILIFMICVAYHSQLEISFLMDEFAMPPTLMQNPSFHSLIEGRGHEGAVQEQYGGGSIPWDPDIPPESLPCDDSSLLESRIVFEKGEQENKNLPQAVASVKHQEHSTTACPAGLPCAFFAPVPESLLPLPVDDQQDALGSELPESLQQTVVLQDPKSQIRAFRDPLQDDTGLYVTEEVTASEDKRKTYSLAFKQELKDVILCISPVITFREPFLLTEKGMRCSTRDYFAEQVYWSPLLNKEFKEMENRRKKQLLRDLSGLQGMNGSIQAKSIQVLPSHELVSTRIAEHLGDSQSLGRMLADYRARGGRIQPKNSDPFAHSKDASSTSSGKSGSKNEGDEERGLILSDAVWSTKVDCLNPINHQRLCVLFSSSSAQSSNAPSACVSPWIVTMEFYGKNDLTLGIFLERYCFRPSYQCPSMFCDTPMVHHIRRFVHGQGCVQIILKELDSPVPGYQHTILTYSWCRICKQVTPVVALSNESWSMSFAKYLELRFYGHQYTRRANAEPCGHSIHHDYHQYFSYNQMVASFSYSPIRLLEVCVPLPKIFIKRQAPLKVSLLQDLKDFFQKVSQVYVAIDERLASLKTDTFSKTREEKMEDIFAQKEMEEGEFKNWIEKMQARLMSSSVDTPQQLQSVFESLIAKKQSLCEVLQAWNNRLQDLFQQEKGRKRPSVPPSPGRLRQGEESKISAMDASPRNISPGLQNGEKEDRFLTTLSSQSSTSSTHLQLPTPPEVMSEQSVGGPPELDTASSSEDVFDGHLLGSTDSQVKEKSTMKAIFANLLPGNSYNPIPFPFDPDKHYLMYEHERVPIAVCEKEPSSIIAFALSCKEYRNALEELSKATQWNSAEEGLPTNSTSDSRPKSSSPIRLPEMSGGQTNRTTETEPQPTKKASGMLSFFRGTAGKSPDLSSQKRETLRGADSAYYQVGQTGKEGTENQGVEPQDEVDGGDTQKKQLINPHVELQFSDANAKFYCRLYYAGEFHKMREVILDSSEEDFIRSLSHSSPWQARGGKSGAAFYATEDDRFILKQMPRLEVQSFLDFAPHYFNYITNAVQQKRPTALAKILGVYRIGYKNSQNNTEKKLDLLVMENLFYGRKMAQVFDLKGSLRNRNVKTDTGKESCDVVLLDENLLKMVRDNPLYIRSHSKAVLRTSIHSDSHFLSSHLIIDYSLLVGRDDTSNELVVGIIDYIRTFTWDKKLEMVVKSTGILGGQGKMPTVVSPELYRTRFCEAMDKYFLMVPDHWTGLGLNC
Excerpt: PIKfyve Biochemical Assay. The biochemical […] inhibition assays were run by Carna Biosciences according to proprietary methodology based on the Promega […] Kinase assay. […] NP_055855.2] was expressed as N-terminal GST-fusion protein (265 kDa) using baculovirus expression system. GST-PIKFYVE was purified by using glutathione sepharose chromatography and used in an ADP-GloTM Kinase assay (Promega). Reactions were set up by adding the test compound solution, substrate solution, ATP solution and kinase solution, each at 4× final concentrations. Reactions were prepared with assay buffer (50 mM MOPS, 1 mM DTT, pH7.2), mixed, and incubated in black 384 well polystyrene plates for 1 hour at room temperature. ADP-Glo^TM reagent was then added for 40 minutes, followed by kinase detection reagent for an additional 40 minutes. The kinase activity was evaluated by detecting relative light units on a luminescence plate reader. […] IC50 values were calculated from concentration vs % inhibition curves by fitting to a four-parameter logistic curve. […] The biochemical […] inhibition assays were run by Carna Biosciences according to proprietary methodology based on the Promega ADP-GloTM Kinase assay. […] GST-PIKFYVE was purified by using glutathione sepharose chromatography and used in an ADP-GIoTM Kinase assay (Promega). Reactions were set up by adding the test compound solution, substrate solution, ATP solution and kinase solution, each at 4× final concentrations. Reactions were prepared with assay buffer (50 mM MOPS, 1 mM DTT, pH7.2), mixed, and incubated in black 384 well polystyrene plates for 1 hour at room temperature. ADP-GIoTM reagent was then added for 40 minutes, followed by kinase detection reagent for an additional 40 minutes. The kinase activity was evaluated by detecting relative light units on a luminescence plate reader. […] IC50 values were calculated from concentration vs % inhibition curves by fitting to a four-parameter logistic curve. […] The same compounds were also tested in both FAB1 and PIKFYVE TDP-43 yeast models.
`NC(=O)c1cc(N2CCOCC2)n2nc(-c3ccncc3)cc2n1` [Compound 102, 7-morpholino-2-(pyridin-4-yl)pyrazolo[1,5-a]pyrimidine-5-carboxamide] showed an IC50 of 1000 to 10000 nM. `COCC1(c2ccn(-c3cc(N4CCOCC4)n4nc(-c5ccncc5)cc4n3)n2)CC1` [Compound 83, 4-(5-(3-(1-(methoxymethyl)cyclopropyl)-1H-pyrazol-1-yl)-2-(pyridin-4-yl)pyrazolo[1,5-a]pyrimidin-7-yl)morpholine] was tested, and the IC50 was 100 to 1000 nM. `Fc1cccc(-c2ccn(-c3cc(N4CCOCC4)n4nc(C5CCCO5)cc4n3)n2)c1` (stereo not drawn) [Compound 94, 4-(5-(3-(3-fluorophenyl)-1H-pyrazol-1-yl)-2-(tetrahydrofuran-2-yl)pyrazolo[1,5-a]pyrimidin-7-yl)morpholine] was tested, and the IC50 was 100 to 1000 nM. Work on `COc1cnn(-c2cc(N3CCOCC3)n3nc(-c4ccncc4)cc3n2)c(=O)c1Br` [Compound 7, 4-bromo-5-methoxy-2-(7-morpholino-2-(pyridin-4-yl)pyrazolo[1,5-a]pyrimidin-5-yl)pyridazin-3(2H)-one] yielded an IC50 of 1000 to 10000 nM. With `c1cc(-c2cc3nc(-n4ccc(C5CCNCC5)n4)cc(N4CCOCC4)n3n2)ccn1` [Compound 62, 4-(5-(3-(piperidin-4-yl)-1H-pyrazol-1-yl)-2-(pyridin-4-yl)pyrazolo[1,5-a]pyrimidin-7-yl)morpholine] the IC50 was 100 to 1000 nM. Molecule `c1ccc(-n2ccc(-c3cc(N4CCOCC4)n4nc(-c5ccncc5)cc4n3)n2)cc1` [Compound 14, 4-(5-(1-phenyl-1H-pyrazol-3-yl)-2-(pyridin-4-yl)pyrazolo[1,5-a]pyrimidin-7-yl)morpholine] has an IC50 of 10 to 100 nM. With `c1ccc(Cc2cccnc2-c2cc(N3CCOCC3)n3nc(-c4ccncc4)cc3n2)cc1` [Compound 40, 4-(5-(3-benzylpyridin-2-yl)-2-(pyridin-4-yl)pyrazolo[1,5-a]pyrimidin-7-yl)morpholine] the IC50 was 1000 to 10000 nM. Molecule `Cc1cccc(CCOc2cc(N3CCOCC3)n3nc(-c4ccncc4)cc3n2)c1` [Compound 2, 4-(5-(3-methylphenethoxy)-2-(pyridin-4-yl)pyrazolo[1,5-a]pyrimidin-7-yl)morpholine] has an IC50 of 1000 to 10000 nM. Work on `Oc1c2c(nn1-c1cc(N3CCOCC3)n3nc(-c4ccncc4)cc3n1)CCCC2` [Compound 55, 2-(7-morpholino-2-(pyridin-4-yl)pyrazolo[1,5-a]pyrimidin-5-yl)-4,5,6,7-tetrahydro-2H-indazol-3-ol] yielded an IC50 of 100 to 1000 nM. Molecule `c1cc(-c2cc3nc(-n4ccc(-c5cncnc5)n4)cc(N4CCOCC4)n3n2)ccn1` [Compound 72, 4-(2-(pyridin-4-yl)-5-(3-(pyrimidin-5-yl)-1H-pyrazol-1-yl)pyrazolo[1,5-a]pyrimidin-7-yl)morpholine] has an IC50 of 100 to 1000 nM. Work on `c1ccc(CC2COCCN2c2cc(N3CCOCC3)n3nc(-c4ccncc4)cc3n2)cc1` (stereo not drawn) [Compound 36, 3-benzyl-4-(7-morpholino-2-(pyridin-4-yl)pyrazolo[1,5-a]pyrimidin-5-yl)morpholine] yielded an IC50 of 1000 to 10000 nM. Molecule `c1nn(-c2cc(N3CCOCC3)n3nc(C4CCCO4)cc3n2)c2c1COCC2` (stereo not drawn) [Compound 100, 1-(7-morpholino-2-(tetrahydrofuran-2-yl)pyrazolo[1,5-a]pyrimidin-5-yl)-1,4,6,7-tetrahydropyrano[4,3-c]pyrazole] has an IC50 greater than 10000 nM. `Oc1cc(C2CCOCC2)nn1-c1cc(N2CCOCC2)n2nc(-c3ccncc3)cc2n1` [Compound 50, 1-(7-morpholino-2-(pyridin-4-yl)pyrazolo[1,5-a]pyrimidin-5-yl)-3-(tetrahydro-2H-pyran-4-yl)-1H-pyrazol-5-ol] showed an IC50 of 100 to 1000 nM. `FC1(F)CNCC(c2ccn(-c3cc(N4CCOCC4)n4nc(-c5ccncc5)cc4n3)n2)C1` (stereo not drawn) [Compound 74, 4-(5-(3-(5,5-difluoropiperidin-3-yl)-1H-pyrazol-1-yl)-2-(pyridin-4-yl)pyrazolo[1,5-a]pyrimidin-7-yl)morpholine] showed an IC50 of 1000 to 10000 nM. Molecule `c1cc(-c2cc3nc(-n4ccc(C5CCCOC5)n4)cc(N4CCOCC4)n3n2)ccn1` (stereo not drawn) [Compound 61, 4-(2-(pyridin-4-yl)-5-(3-(tetrahydro-2H-pyran-3-yl)-1H-pyrazol-1-yl)pyrazolo[1,5-a]pyrimidin-7-yl)morpholine] has an IC50 of 1000 to 10000 nM. `CC1(CCc2ccn(-c3cc(N4CCOCC4)n4nc(-c5ccncc5)cc4n3)n2)CC1` [Compound 84, 4-(5-(3-(2-(1-methylcyclopropyl)ethyl)-1H-pyrazol-1-yl)-2-(pyridin-4-yl)pyrazolo[1,5-a]pyrimidin-7-yl)morpholine] showed an IC50 of 1000 to 10000 nM. `c1ccc(-c2nc(-c3cc(N4CCOCC4)n4nc(-c5ccncc5)cc4n3)ns2)cc1` [Compound 128, 4-(5-(5-phenyl-1,2,4-thiadiazol-3-yl)-2-(pyridin-4-yl)pyrazolo[1,5-a]pyrimidin-7-yl)morpholine] was tested, and the IC50 was 10 to 100 nM. `c1cncc(-n2nccc2-c2cc(N3CCOCC3)n3nc(-c4ccncc4)cc3n2)c1` [Compound 12, 4-(5-(1-(pyridin-3-yl)-1H-pyrazol-5-yl)-2-(pyridin-4-yl)pyrazolo[1,5-a]pyrimidin-7-yl)morpholine] gave an IC50 of 1000 to 10000 nM. With `COCCc1ccn(-c2cc(N3CCOCC3)n3nc(-c4ccncc4)cc3n2)n1` [Compound 81, 4-(5-(3-(2-methoxyethyl)-1H-pyrazol-1-yl)-2-(pyridin-4-yl)pyrazolo[1,5-a]pyrimidin-7-yl)morpholine] the IC50 was 100 to 1000 nM. In the case of `c1cncc(-n2ccc(-c3cc(N4CCOCC4)n4nc(-c5ccncc5)cc4n3)n2)c1` [Compound 13, 4-(5-(1-(pyridin-3-yl)-1H-pyrazol-3-yl)-2-(pyridin-4-yl)pyrazolo[1,5-a]pyrimidin-7-yl)morpholine], the IC50 is reported as 10 to 100 nM. With `c1ccc(Oc2ncccc2-c2cc(N3CCOCC3)n3nc(-c4ccncc4)cc3n2)cc1` [Compound 42, 4-(5-(2-phenoxypyridin-3-yl)-2-(pyridin-4-yl)pyrazolo[1,5-a]pyrimidin-7-yl)morpholine] the IC50 was 100 to 1000 nM. With `c1ccc(-n2nccc2-c2cc(N3CCOCC3)n3nc(-c4ccncc4)cc3n2)cc1` [Compound 146, 4-(5-(1-phenyl-1H-pyrazol-5-yl)-2-(pyridin-4-yl)pyrazolo[1,5-a]pyrimidin-7-yl)morpholine] the IC50 was 100 to 1000 nM. Molecule `c1cncc(-c2ccn(-c3cc(N4CCOCC4)n4nc(C5CCCO5)cc4n3)n2)c1` (stereo not drawn) [Compound 92, 4-(5-(3-(pyridin-3-yl)-1H-pyrazol-1-yl)-2-(tetrahydrofuran-2-yl)pyrazolo[1,5-a]pyrimidin-7-yl)morpholine] has an IC50 of 1000 to 10000 nM. `CC(C)(C)OC(=O)NC(=N)c1cc(N2CCOCC2)n2nc(-c3ccncc3)cc2n1` [Compound 115, tert-butyl imino(7-morpholino-2-(pyridin-4-yl)pyrazolo[1,5-a]pyrimidin-5-yl)methylcarbamate] was tested, and the IC50 was 100 to 1000 nM. `O=C(/C=C/c1cc(N2CCOCC2)n2nc(-c3ccncc3)cc2n1)c1ccccc1` [Compound 109, (E)-3-(7-morpholino-2-(pyridin-4-yl)pyrazolo[1,5-a]pyrimidin-5-yl)-1-phenylprop-2-en-1-one] gave an IC50 of 1000 to 10000 nM. With `c1cc(-c2cc3nc(-n4ccc(C5CCCNC5)n4)cc(N4CCOCC4)n3n2)ccn1` (single isomer, unassigned) [Compound 75, 4-(5-(3-(piperidin-3-yl)-1H-pyrazol-1-yl)-2-(pyridin-4-yl)pyrazolo[1,5-a]pyrimidin-7-yl)morpholine] the IC50 was 100 to 1000 nM.

Same assay, conditions: numeric values
`c1ccc(Oc2nccc(-c3cc(N4CCOCC4)n4nc(-c5ccncc5)cc4n3)n2)cc1` [Compound 141, 4-(5-(2-phenoxypyrimidin-4-yl)-2-(pyridin-4-yl)pyrazolo[1,5-a]pyrimidin-7-yl)morpholine] was tested, and the IC50 was 1000 nM.
